Numbers after ± are expanded uncertainties.
Conditions: 101.33 kPa, Liquid; for viscosity: Capillary tube (Ostwald / Ubbelohde) method; for mass density: Vibrating tube method

| viscosity (298.15 K) [mPa·s] | mass density (298.15 K) [kg/m3] | viscosity (303.15 K) [mPa·s] | mass density (303.15 K) [kg/m3] | viscosity (308.15 K) [mPa·s] | mass density (308.15 K) [kg/m3] | viscosity (313.15 K) [mPa·s] | mass density (313.15 K) [kg/m3] | SMILES |
| --- | --- | --- | --- | --- | --- | --- | --- | --- |
| 8.703 ± 0.2 | 1009 ± 1 | 6.981 ± 0.16 | 1004.86 ± 1 | 5.714 ± 0.13 | 1000.73 ± 1 | 4.748 ± 0.11 | 996.58 ± 1 | CC(O)c1ccccc1 (configuration not stated) [1-phenylethanol] |
| 0.6378 ± 0.014 | 862.51 ± 1 | 0.609 ± 0.013 | 858.1 ± 1 | 0.5682 ± 0.012 | 853.68 ± 1 | 0.541 ± 0.012 | 849.26 ± 1 | CCc1ccccc1 [ethylbenzene] |
| 0.891 ± 0.019 | – | – | – | – | – | – | – | O [water] |

Source: the NIST ThermoML archive (doi:10.1016/j.jct.2013.03.023)
